Measurements: US20260042731A1, “(2,4-DICHLOROPHENOXY)ACETIC ACID ANALOGS” (CORTEVA AGRISCIENCE LLC, priority 2022, published 2026)
Like-named read-outs stand apart in the source and are kept apart here.

Columns and labels:
[1] = tested on: Chenopodium album (CHEAL), common lambsquarters; experiment: Postemergence herbicide evaluation, growth of Chenopodium album (CHEAL); assay type: in vivo; conditions: Chenopodium album, post-emergence, percent reduction in plant size vs untreated control, read-out: Ave. CHEAL; for pest or weed control at 280 g/ha: 280 g ae/ha; for pest or weed control at 560 g/ha: 560 g ae/ha
[2] = tested on: Ambrosia artemisiifolia (AMBEL), common ragweed; experiment: Postemergence herbicide evaluation, growth of Ambrosia artemisiifolia (AMBEL); assay type: in vivo; conditions: Ambrosia artemisiifolia, post-emergence, percent reduction in plant size vs untreated control, read-out: AVE. AMBEL; for pest or weed control at 280 g/ha: 280 g ae/ha; for pest or weed control at 560 g/ha: 560 g ae/ha
[3] = tested on: Amaranthus rudis (AMATA), tall water hemp; experiment: Postemergence herbicide evaluation, growth of Amaranthus rudis (AMATA); assay type: in vivo; conditions: Amaranthus tuberculatus, post-emergence, percent reduction in plant size vs untreated control, read-out: Ave. AMATA; for pest or weed control at 280 g/ha: 280 g ae/ha; for pest or weed control at 560 g/ha: 560 g ae/ha
[4] = tested on: weeds ABUTH, AMATA, AMBEL, CHEAL, ERICA; experiment: Postemergence herbicide evaluation, overall average % weed control across ABUTH, AMATA, AMBEL, CHEAL and ERICA; assay type: in vivo; conditions: post-emergence, average over five weeds, read-out: Overall Ave % Weed Control; for pest or weed control at 280 g/ha: 280 g ae/ha; for pest or weed control at 560 g/ha: 560 g ae/ha
[5] = tested on: glyphosate resistant Conyza canadensis (L.) (ERICA), horseweed; experiment: Postemergence herbicide evaluation, growth of Conyza canadensis (ERICA); assay type: in vivo; conditions: Erigeron canadensis, post-emergence, percent reduction in plant size vs untreated control, read-out: Ave. ERICA; for pest or weed control at 280 g/ha: 280 g ae/ha; for pest or weed control at 560 g/ha: 560 g ae/ha
[6] = tested on: Abutilon theophrasti (ABUTH), velvetleaf; experiment: Postemergence herbicide evaluation, growth of Abutilon theophrasti (ABUTH); assay type: in vivo; conditions: Abutilon theophrasti, post-emergence, percent reduction in plant size vs untreated control, read-out: AVE. ABUTH; for pest or weed control at 280 g/ha: 280 g ae/ha; for pest or weed control at 560 g/ha: 560 g ae/ha
[7] = Volatility of compounds measured by thermogravimetric analysis (TGA); assay type: physicochemical

| SMILES | pest or weed control at 280 g/ha ([1]; 168 h, 7 DAA) [%] | pest or weed control at 560 g/ha ([1]; 168 h, 7 DAA) [%] | pest or weed control at 280 g/ha ([1]; 336 h, 14 DAA) [%] | pest or weed control at 560 g/ha ([1]; 336 h, 14 DAA) [%] | pest or weed control at 280 g/ha ([1]; 504 h, 21 DAA) [%] | pest or weed control at 560 g/ha ([1]; 504 h, 21 DAA) [%] | pest or weed control at 560 g/ha ([2]; 168 h, 7 DAA) [%] | pest or weed control at 560 g/ha ([2]; 504 h, 21 DAA) [%] | pest or weed control at 560 g/ha ([3]; 168 h, 7 DAA) [%] | pest or weed control at 560 g/ha ([3]; 336 h, 14 DAA) [%] | pest or weed control at 560 g/ha ([4]; 168 h, 7 DAA) [%] | pest or weed control at 560 g/ha ([4]; 336 h, 14 DAA) [%] | pest or weed control at 560 g/ha ([4]; 504 h, 21 DAA) [%] | pest or weed control at 560 g/ha ([5]; 168 h, 7 DAA) [%] | pest or weed control at 560 g/ha ([5]; 336 h, 14 DAA) [%] | pest or weed control at 560 g/ha ([5]; 504 h, 21 DAA) [%] | pest or weed control at 560 g/ha ([6]; 168 h, 7 DAA) [%] | pest or weed control at 560 g/ha ([6]; 336 h, 14 DAA) [%] | pest or weed control at 560 g/ha ([6]; 504 h, 21 DAA) [%] | TGA Data (rate of weight loss, volatility) [7] [µg/min] | other results |
| --- | --- | --- | --- | --- | --- | --- | --- | --- | --- | --- | --- | --- | --- | --- | --- | --- | --- | --- | --- | --- | --- |
| O=C(COc1cc(Cl)cc(Cl)c1)OCCCOC(=O)COc1ccc(Cl)cc1Cl [Compound B7] | 82.5 | 77.5 | 96.5 | 96.5 | 90 | 87.5 | 72.5 | 100 | 67.5 | 85 | 68 | 74.1 | 76.2 | 85 | 91.5 | 98.5 | 37.5 | 30 | 42.5 | 0.03572 | pest or weed control at 280 g/ha ([2]; 168 h, 7 DAA): 62.5%; pest or weed control at 280 g/ha ([2]; 336 h, 14 DAA): 57.5%; pest or weed control at 560 g/ha ([2]; 336 h, 14 DAA): 67.5%; pest or weed control at 280 g/ha ([2]; 504 h, 21 DAA): 77.5%; pest or weed control at 280 g/ha ([3]; 168 h, 7 DAA): 57.5%; pest or weed control at 280 g/ha ([3]; 336 h, 14 DAA): 85%; pest or weed control at 280 g/ha ([3]; 504 h, 21 DAA): 70%; pest or weed control at 560 g/ha ([3]; 504 h, 21 DAA): 52.5%; pest or weed control at 280 g/ha ([4]; 168 h, 7 DAA): 61%; pest or weed control at 280 g/ha ([4]; 336 h, 14 DAA): 65.3%; pest or weed control at 280 g/ha ([4]; 504 h, 21 DAA): 70.3%; pest or weed control at 280 g/ha ([5]; 168 h, 7 DAA): 82.5%; pest or weed control at 280 g/ha ([5]; 336 h, 14 DAA): 70%; pest or weed control at 280 g/ha ([5]; 504 h, 21 DAA): 99%; pest or weed control at 280 g/ha ([6]; 168 h, 7 DAA): 20%; pest or weed control at 280 g/ha ([6]; 336 h, 14 DAA): 17.5%; pest or weed control at 280 g/ha ([6]; 504 h, 21 DAA): 15% |
| O=C(COc1ccc(Cl)cc1Cl)NOCc1c(F)cccc1Cl [Compound D17] | – | 77.5 | – | 98 | – | 100 | 77.5 | 100 | 86.5 | 96 | 73.8 | 89.8 | 94.5 | 80 | 100 | 100 | 47.5 | 62.5 | 80 | 0.0287 | pest or weed control at 560 g/ha ([2]; 336 h, 14 DAA): 92.5%; pest or weed control at 560 g/ha ([3]; 504 h, 21 DAA): 92.5% |
| COc1ccc(CONC(=O)COc2ccc(Cl)cc2Cl)cc1 [Compound D20] | 85 | 82.5 | 87.5 | 94.5 | 99 | 95 | 77.5 | 100 | 77.5 | 96 | 75 | 90.3 | 91.2 | 82.5 | 98.5 | 96 | 55 | 67.5 | 80 | 0.0112 | pest or weed control at 280 g/ha ([2]; 168 h, 7 DAA): 80%; pest or weed control at 280 g/ha ([2]; 336 h, 14 DAA): 70%; pest or weed control at 280 g/ha ([2]; 504 h, 21 DAA): 100%; pest or weed control at 280 g/ha ([3]; 168 h, 7 DAA): 72.5%; pest or weed control at 280 g/ha ([3]; 336 h, 14 DAA): 97.5%; pest or weed control at 280 g/ha ([3]; 504 h, 21 DAA): 57.5%; pest or weed control at 280 g/ha ([4]; 168 h, 7 DAA): 77.5%; pest or weed control at 280 g/ha ([4]; 336 h, 14 DAA): 88.9%; pest or weed control at 280 g/ha ([4]; 504 h, 21 DAA): 90.2%; pest or weed control at 280 g/ha ([5]; 168 h, 7 DAA): 72.5%; pest or weed control at 280 g/ha ([5]; 336 h, 14 DAA): 99.5%; pest or weed control at 280 g/ha ([5]; 504 h, 21 DAA): 96%; pest or weed control at 280 g/ha ([6]; 168 h, 7 DAA): 77.5%; pest or weed control at 280 g/ha ([6]; 336 h, 14 DAA): 90%; pest or weed control at 280 g/ha ([6]; 504 h, 21 DAA): 98.5% |
| O=C(COc1ccc(Cl)cc1Cl)NOCc1ccc(Cl)cc1 [Compound D16] | 80 | 82.5 | 94 | 92.5 | 97.5 | 100 | 72.5 | 100 | 75 | 92.5 | 67.5 | 81.5 | 87.3 | 80 | 97.5 | 99 | 27.5 | 37.5 | 45 | 0.03658 | pest or weed control at 280 g/ha ([2]; 168 h, 7 DAA): 77.5%; pest or weed control at 280 g/ha ([2]; 336 h, 14 DAA): 75%; pest or weed control at 560 g/ha ([2]; 336 h, 14 DAA): 87.5%; pest or weed control at 280 g/ha ([2]; 504 h, 21 DAA): 100%; pest or weed control at 280 g/ha ([3]; 168 h, 7 DAA): 75%; pest or weed control at 280 g/ha ([3]; 336 h, 14 DAA): 92.5%; pest or weed control at 280 g/ha ([3]; 504 h, 21 DAA): 85%; pest or weed control at 560 g/ha ([3]; 504 h, 21 DAA): 92.5%; pest or weed control at 280 g/ha ([4]; 168 h, 7 DAA): 74%; pest or weed control at 280 g/ha ([4]; 336 h, 14 DAA): 85.3%; pest or weed control at 280 g/ha ([4]; 504 h, 21 DAA): 92.5%; pest or weed control at 280 g/ha ([5]; 168 h, 7 DAA): 72.5%; pest or weed control at 280 g/ha ([5]; 336 h, 14 DAA): 92.5%; pest or weed control at 280 g/ha ([5]; 504 h, 21 DAA): 100%; pest or weed control at 280 g/ha ([6]; 168 h, 7 DAA): 65%; pest or weed control at 280 g/ha ([6]; 336 h, 14 DAA): 72.5%; pest or weed control at 280 g/ha ([6]; 504 h, 21 DAA): 80% |
